# Values of other authors as cited in patent US20240366505A1, “Liquid Resin Extended-Release Oral Naltrexone Formulation for Treating Autism-Related Disorders” (AARDVARK THERAPEUTICS, INC., priority 2022, published 2024).
# Where two headings read alike, the source gives them in different places.
# Key:
# [1] = 6-β-naltrexol; 50 mg REVIA tablets once daily for 7 days
# [2] = single 50 mg REVIA tablet
# ASD children = conditions: 20 mg immediate release per day for 4 weeks
# [3] = 50 mg once daily
# children with ASD = conditions: 1.0 mg/kg single daily immediate release oral dose, 12 or 14 days
# [4] = in vivo
# autistic behavior = conditions: 0.5, 1.0 and 2.0 mg/kg immediate release oral
SMILES,AUC(0-τ) [1],Cmax [1],"AUC(0-inf) ([2]; 6-β-naltrexol, mean (CV%))","Cmax ([2]; 6-β-naltrexol, mean (CV%))","Tmax ([2]; 6-β-naltrexol, mean (CV%))",CGI ratings of the teachers (ASD children),behavior ratings completed by the teachers (Aberrant Behavior Checklist (ABC) scores) (ASD children),"Tmax ([2]; naltrexone, Mean (CV %))",rate of early discontinuation of treatment versus placebo [3],"adverse effects versus placebo ([3]; weeks 1, 5 and 8)","changes in parent measures (CGI, Conners IHF, SE-Restlessness) and Teacher CGI (children with ASD)","incidence of difficulty sleeping, anxiety, nervousness, abdominal pain/cramps, nausea and/or vomiting, low energy, joint/muscle pain, headache [4]","incidence of loss of appetite, diarrhea, constipation, thirstiness, increased energy, feeling down, irritability, dizziness, skin rash, delayed ejaculation, erectile dysfunction, chills [4]",accumulation (after 100 mg daily doses),"excretion of parent drug and metabolites by the kidney (human, in vivo)","dose absorbed from the gastrointestinal tract (human, in vivo, po)",urinary excretion of unchanged naltrexone (immediate release formulations),dose proportionality of AUC and Cmax (over the range of 50-200 mg),effect on autistic behavior and gaze aversion (autistic behavior)
Oc1ccc2c3c1O[C@H]1[C@H](O)CC[C@@]4(O)[C@@H](C2)N(CC2CC2)CC[C@]314 [6-β-naltrexol],788 ± 134.8 ng·h/mL,96.1 ± 21.05 ng/mL,717.3 ng·h/mL,85.6 ng/mL,1.05 h,,,,,,,,,,,,,,
"O=C1CC[C@@]2(O)[C@H]3Cc4ccc(O)c5c4[C@@]2(CCN3CC2CC2)[C@H]1O5 [naltrexone, 17-(cyclopropylmethyl)-4,5α-epoxy-3,14-dihydroxy-morphinan-6-one]",,,,,,Significant difference,significant changes,1.07 h,greater rate,significantly more adverse effects,achieved statistical significance,Greater than 10%,Less than 10%,do not accumulate,53-79 % of the dose,approximately 96%,less than 2 % of an oral dose,dose-proportional,reverse autistic behavior and gaze aversion
